Consider 21 molecules from patent publication US10065963B2 (Incyte Corporation, priority 2015, dated 2018).

Broadly, the pIC50 is the IC50 on a negative log10 scale, so that one unit is a factor of ten.

pIC50: −log10 of the molar value. Structures can show the parent of a compound that is named as a salt. Where two headings read alike, the source gives them in different places. A value given as a limit tells only on which side of the number the result lay.

Test [1] has as its target PI3Kδ (p110δ/p85α) Recombinant Human Protein (Homo sapiens (Human), UniProt O00329). The test can be described thus: PI3Kδ scintillation proximity assay. It is filed as biochemical. The settings on record: 2 μM ATP, 20 μM PIP2. A general note: In a scintillation proximity assay essentially only radioactivity close to the scintillant gives light.
For test [2], the system named is Phosphorylated Ribosomal Protein S6 (RPS6) in THP-1 cells. Briefly: THP-1 RPS6 ELISA assay. The class given is cell-based, human. The following applies: 10 nM MCP-1, read-out: PI3Kγ_THP1_RPS6_ELISA IC50. In general terms: An ELISA detects its analyte on a solid surface through an enzyme-linked reagent.
In test [3] the target is PI3Kγ (p110γ) Recombinant Human Protein (Homo sapiens (Human), UniProt P48736). The test can be described thus: PI3K-γ scintillation proximity assay. The class given is biochemical. The following applies: 2 μM ATP, 20 μM PIP2.
The mark [4] stands for this setting: Homo sapiens, THP-1, THP-1 cells.

Sequence of PI3Kδ (p110δ/p85α) Recombinant Human Protein (O00329 whole entry): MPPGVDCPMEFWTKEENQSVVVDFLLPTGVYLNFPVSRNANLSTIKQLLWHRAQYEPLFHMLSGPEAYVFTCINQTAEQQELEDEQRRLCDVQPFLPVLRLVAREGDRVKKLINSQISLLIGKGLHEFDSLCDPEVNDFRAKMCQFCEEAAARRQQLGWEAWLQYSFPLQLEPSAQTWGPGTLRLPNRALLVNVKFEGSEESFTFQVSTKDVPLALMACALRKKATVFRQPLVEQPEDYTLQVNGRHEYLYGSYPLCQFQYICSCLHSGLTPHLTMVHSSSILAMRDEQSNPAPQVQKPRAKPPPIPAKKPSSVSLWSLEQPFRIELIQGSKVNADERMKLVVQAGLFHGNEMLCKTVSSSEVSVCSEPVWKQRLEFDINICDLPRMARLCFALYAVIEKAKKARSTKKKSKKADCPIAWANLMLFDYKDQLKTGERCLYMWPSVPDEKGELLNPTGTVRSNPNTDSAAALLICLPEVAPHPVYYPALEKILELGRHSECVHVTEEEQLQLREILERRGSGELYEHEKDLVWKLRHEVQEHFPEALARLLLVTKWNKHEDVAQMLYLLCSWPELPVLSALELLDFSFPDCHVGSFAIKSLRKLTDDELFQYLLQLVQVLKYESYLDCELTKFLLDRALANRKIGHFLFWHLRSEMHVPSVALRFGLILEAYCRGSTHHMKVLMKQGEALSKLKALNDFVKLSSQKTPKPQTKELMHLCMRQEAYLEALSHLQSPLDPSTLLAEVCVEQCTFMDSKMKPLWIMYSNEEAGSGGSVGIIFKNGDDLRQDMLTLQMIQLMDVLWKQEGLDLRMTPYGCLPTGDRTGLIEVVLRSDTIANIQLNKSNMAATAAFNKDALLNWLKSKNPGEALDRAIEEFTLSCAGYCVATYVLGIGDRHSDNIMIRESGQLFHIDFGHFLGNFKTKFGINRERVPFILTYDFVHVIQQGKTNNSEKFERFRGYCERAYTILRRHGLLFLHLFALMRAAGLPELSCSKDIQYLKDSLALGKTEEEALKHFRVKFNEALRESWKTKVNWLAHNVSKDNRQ
Sequence of PI3Kδ (p110δ/p85α) Recombinant Human Protein (P27986 whole entry partner): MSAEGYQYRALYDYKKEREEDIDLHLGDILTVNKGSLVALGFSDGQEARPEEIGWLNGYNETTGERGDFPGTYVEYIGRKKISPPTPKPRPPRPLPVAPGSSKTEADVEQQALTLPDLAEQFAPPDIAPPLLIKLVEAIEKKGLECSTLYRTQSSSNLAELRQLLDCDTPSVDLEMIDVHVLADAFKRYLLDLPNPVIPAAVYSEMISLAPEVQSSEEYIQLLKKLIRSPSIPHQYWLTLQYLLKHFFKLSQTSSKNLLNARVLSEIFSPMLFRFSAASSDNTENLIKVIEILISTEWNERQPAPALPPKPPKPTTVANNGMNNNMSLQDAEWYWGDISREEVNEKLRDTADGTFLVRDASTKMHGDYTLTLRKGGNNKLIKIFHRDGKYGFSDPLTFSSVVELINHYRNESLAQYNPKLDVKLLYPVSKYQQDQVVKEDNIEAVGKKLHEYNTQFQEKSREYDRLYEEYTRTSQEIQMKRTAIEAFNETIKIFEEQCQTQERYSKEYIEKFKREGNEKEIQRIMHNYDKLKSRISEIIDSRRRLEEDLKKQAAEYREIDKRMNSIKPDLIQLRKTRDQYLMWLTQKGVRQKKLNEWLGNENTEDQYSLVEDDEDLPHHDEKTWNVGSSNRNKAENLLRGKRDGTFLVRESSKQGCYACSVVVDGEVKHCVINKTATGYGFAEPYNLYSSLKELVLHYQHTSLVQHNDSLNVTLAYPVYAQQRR
Sequence of PI3Kγ (p110γ) Recombinant Human Protein (P48736 whole entry): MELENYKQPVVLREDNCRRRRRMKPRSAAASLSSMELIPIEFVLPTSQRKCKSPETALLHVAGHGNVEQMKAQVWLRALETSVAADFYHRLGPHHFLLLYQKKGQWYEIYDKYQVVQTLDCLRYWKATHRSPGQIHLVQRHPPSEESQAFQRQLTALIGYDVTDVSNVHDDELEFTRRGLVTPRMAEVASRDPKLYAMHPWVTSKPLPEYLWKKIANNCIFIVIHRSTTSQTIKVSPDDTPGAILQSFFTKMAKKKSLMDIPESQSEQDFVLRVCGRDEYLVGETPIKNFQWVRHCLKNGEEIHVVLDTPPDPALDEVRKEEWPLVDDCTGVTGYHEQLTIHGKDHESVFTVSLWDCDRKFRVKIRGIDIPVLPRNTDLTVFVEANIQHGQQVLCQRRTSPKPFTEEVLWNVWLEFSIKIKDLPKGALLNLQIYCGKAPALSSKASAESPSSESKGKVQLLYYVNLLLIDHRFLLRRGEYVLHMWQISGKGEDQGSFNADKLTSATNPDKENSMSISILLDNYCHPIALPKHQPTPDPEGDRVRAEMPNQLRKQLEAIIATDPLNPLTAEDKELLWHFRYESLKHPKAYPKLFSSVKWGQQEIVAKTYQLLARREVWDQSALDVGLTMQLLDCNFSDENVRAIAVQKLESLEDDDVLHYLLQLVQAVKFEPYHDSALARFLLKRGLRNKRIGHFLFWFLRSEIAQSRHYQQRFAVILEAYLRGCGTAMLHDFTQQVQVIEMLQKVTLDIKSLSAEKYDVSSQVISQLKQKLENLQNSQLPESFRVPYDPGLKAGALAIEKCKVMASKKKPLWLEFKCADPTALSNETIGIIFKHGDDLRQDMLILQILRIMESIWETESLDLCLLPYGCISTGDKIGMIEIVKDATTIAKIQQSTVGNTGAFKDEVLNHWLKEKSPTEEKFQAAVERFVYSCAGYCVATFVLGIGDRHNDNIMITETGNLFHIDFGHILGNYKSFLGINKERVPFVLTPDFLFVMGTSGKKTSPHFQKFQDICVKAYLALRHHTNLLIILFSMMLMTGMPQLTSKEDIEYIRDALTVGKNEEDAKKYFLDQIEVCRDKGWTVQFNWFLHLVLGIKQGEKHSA

`CC(NC(=O)c1c(N)nn2cccnc12)c1cc(Cl)c2cncn2c1N1CCCC(C)(C#N)C1` (single isomer, unassigned) [Example 77B, 2-Amino-N-{1-[8-chloro-5-(3-cyano-3-methylpiperidin-1-yl)imidazo[1,5-a]pyridin-6-yl]ethyl}pyrazolo[1,5-a]pyrimidinc-3-carboxamide trifluroacetate]: the pIC50 was more than 7.00 in test [1], more than 6.30 in test [2] (THP-1 cells) and more than 7.00 in test [3].

As to `CC(NC(=O)c1c(N)nn2cccnc12)c1cc(Cl)c2cncn2c1N1CCCC(O)(C(F)(F)F)C1` (single isomer, unassigned) [Example 78A, 2-Amino-N-(1-{8-chloro-5-[3-hydroxy-3-(trifluoromethyl)piperidin-1-yl]imidazo[1,5-a]pyridin-6-yl}ethyl)pyrazolo[1,5-a]pyrimidine-3-carboxamide trifluoroacetate], the pIC50 is more than 6.30 in test [1], more than 6.30 in test [2] (setting [4]) and more than 7.00 in test [3].

`CC(NC(=O)c1c(N)nn2cccnc12)c1cc(Cl)c2cncn2c1N1CCCC(O)(C(F)(F)F)C1` (single isomer, unassigned) [Example 78B, 2-Amino-N-(1-{8-chloro-5-[3-hydroxy-3-(trifluoromethyl)piperidin-1-yl]imidazo[1,5-a]pyridin-6-yl}ethyl)pyrazolo[1,5-a]pyrimidine-3-carboxamide trifluoroacetate]: the pIC50 in test [1] was more than 7.00; in test [2] (THP-1 cells) it was more than 6.30; in test [3], more than 7.00.

For the molecule `CC(NC(=O)c1c(N)nn2cccnc12)c1cc(Cl)c2cn[nH]c2c1N1CCC(O)C1` (single isomer, unassigned) [Example 90B, 2-Amino-N-{1-[4-chloro-7-(3-hydroxypyrrolidin-1-yl)-2H-indazol-6-yl]ethyl}pyrazolo[1,5-a]pyrimidine-3-carboxamide bis(trifluoroacetate)], the pIC50 in test [1] is more than 6.30; in test [2] (setting [4]), more than 6.30; in test [3] it was more than 7.00.

Take `CNC(=O)C1CCN(c2c(C(C)NC(=O)c3c(N)nn4cccnc34)cc(Cl)c3cn[nH]c23)C1` (single isomer, unassigned) [Example 103A, 2-Amino-N-[1-(4-chloro-7-{3-[(methylamino)carbonyl]pyrrolidin-1-yl}-2H-indazol-6-yl)ethyl]pyrazolo[1,5-a]pyrimidine-3-carboxamide trifluoroacetate]: the pIC50 in test [1] is more than 6.30; in test [2] (setting [4]), more than 6.00; in test [3], more than 7.00.

On to `CNC(=O)C1CCN(c2c(C(C)NC(=O)c3c(N)nn4cccnc34)cc(Cl)c3cn[nH]c23)C1` (single isomer, unassigned) [Example 103B, 2-Amino-N-[1-(4-chloro-7-{3-[(methylamino)carbonyl]pyrrolidin-1-yl}-2H-indazol-6-yl)ethyl]pyrazolo[1,5-a]pyrimidine-3-carboxamide trifluoroacetate], for which the pIC50 in test [1] is more than 6.30; in test [2] (THP-1 cells, trifluoroacetate), more than 6.30; in test [3], more than 7.00.

With `C[C@H](NC(=O)c1c(N)nn2cccnc12)c1cc(Cl)c2cncn2c1N1CCS(=O)(=O)[C@H](C)C1` [Example 31A, 2-Amino-N-((1S)-1-(8-chloro-5-(2-methyl-1,1-dioxidothiomorpholino)imidazo[1,5-a]pyridin-6-yl)ethyl)pyrazolo[1,5-a]pyrimidine-3-carboxamide trifluoroacetate salt], the pIC50 in test [1] is more than 7.00; in test [2] (setting [4]) it was more than 6.30; in test [3], more than 7.00.

In the case of `CC(NC(=O)c1c(N)nn2cccnc12)c1cc(Cl)c2cncn2c1N1CCS(=O)(=O)CC1` (stereo not drawn) [Example 36, 2-Amino-N-(1-[8-chloro-5-(1,1-dioxidothiomorpholin-4-yl)imidazo[1,5-a]pyridin-6-yl]ethyl)pyrazolo[1,5-a]pyrimidine-3-carboxamide trifluoroacetate salt], the pIC50 in test [1] was more than 7.00; in test [2] (setting [4]) it was more than 6.30; in test [3], more than 7.00.

Turning to `CC(NC(=O)c1c(N)nn2cccnc12)c1cc(Cl)c2cncn2c1N1CC[S+]([O-])CC1` (stereo not drawn) [Example 37, 2-Amino-N-(1-[8-chloro-5-(1-oxidothiomorpholin-4-yl)imidazo[1,5-a]pyridin-6-yl]ethyl)pyrazolo[1,5-a]pyrimidine-3-carboxamide trifluoroacetate salt], the pIC50 is more than 6.30 in test [1], more than 6.30 in test [2] (setting [4]) and more than 7.00 in test [3].

`CC(NC(=O)c1c(N)nn2cccnc12)c1cc(Cl)c2cncn2c1N1CCS(=O)(=O)CC1C` (stereo not drawn) [Example 38B, 2-Amino-N-(1-[8-chloro-5-(3-methyl-1,1-dioxidothiomorpholin-4-yl)imidazo[1,5-a]pyridin-6-yl]ethyl)pyrazolo[1,5-a]pyrimidine-3-carboxamide trifluoroacetate salt]: the pIC50 is more than 7.00 in test [1], more than 6.30 in test [2] (setting [4]) and more than 7.00 in test [3].

Turning to `CC(NC(=O)c1c(N)nn2cccnc12)c1cc(Cl)c2cncn2c1N1CCS(=N)(=O)CC1` (stereo not drawn) [Example 39, 2-Amino-N-(1-[8-chloro-5-(1-imino-1-oxidothiomorpholin-4-yl)imidazo[1,5-a]pyridin-6-yl]ethyl)pyrazolo[1,5-a]pyrimidine-3-carboxamide], the pIC50 in test [1] is more than 7.00; in test [2] (setting [4]), more than 6.30; in test [3], more than 7.00.

Turning to `CC(NC(=O)c1c(N)nn2cccnc12)c1cc(Cl)c2cncn2c1N1CCS(=O)(=O)C(C)(C)C1` (stereo not drawn) [Example 40, 2-Amino-N-(1-[8-chloro-5-(2,2-dimethyl-1,1-dioxidothiomorpholin-4-yl)imidazo[1,5-a]pyridin-6-yl]ethyl)pyrazolo[1,5-a]pyrimidine-3-carboxamide trifluoroacetate salt], the pIC50 in test [1] was more than 7.00; in test [2] (setting [4]), more than 6.30; in test [3] it was more than 7.00.

For `CCOc1c(C(C)NC(=O)c2c(N)nn3ccc(-c4cncc(OC)c4)nc23)cc(Cl)c2cn[nH]c12` (stereo not drawn) [Example 41, 2-Amino-N-(1-(4-chloro-7-ethoxy-1H-indazol-6-yl)ethyl)-5-(5-methoxypyridin-3-yl)pyrazolo[1,5-a]pyrimidine-3-carboxamide], the pIC50 in test [1] was more than 7.00; in test [2] (setting [4]), more than 6.30; in test [3], more than 7.00.

In the case of `CCOc1c(C(C)NC(=O)c2c(N)nn3ccc(-c4cncc(CO)c4)nc23)cc(Cl)c2cn[nH]c12` (stereo not drawn) [Example 42, 2-Amino-N-(1-(4-chloro-7-ethoxy-1H-indazol-6-yl)ethyl)-5-(5-(hydroxymethyl)pyridin-3-yl)pyrazolo[1,5-a]pyrimidine-3-carboxamide], the pIC50 in test [1] was more than 7.00; in test [2] (setting [4]) it was more than 6.30; in test [3], more than 7.00.

As to `CCOc1c(C(C)NC(=O)c2c(N)nn3ccc(-c4cncc(OC)c4)nc23)cc(Cl)c2c(Cl)n[nH]c12` (stereo not drawn) [Example 43, 2-Amino-N-(1-(3,4-dichloro-7-ethoxy-1H-indazol-6-yl)ethyl)-5-(5-methoxypyridin-3-yl)pyrazolo[1,5-a]pyrimidine-3-carboxamide trifluoroacetate salt], the results for the pIC50 in test [1], in test [2] (setting [4]) and in test [3] were more than 7.00, more than 6.30 and more than 7.00, respectively.

For `CCOc1c(C(C)NC(=O)c2c(N)nn3ccc(N4CCCCC4)nc23)cc(Cl)c2cn[nH]c12` (stereo not drawn) [Example 44, 2-Amino-N-(1-(4-chloro-7-ethoxy-1H-indazol-6-yl)ethyl)-5-(piperidin-1-yl)pyrazolo[1,5-a]pyrimidine-3-carboxamide trifluoroacetate salt], the results for the pIC50 in test [1], in test [2] (setting [4]) and in test [3] were more than 5.70, less than 6.00 and more than 6.30, respectively.

As for `CCOc1c(C(C)NC(=O)c2c(N)nc3ccc(Cl)nn23)cc(Cl)c2cn[nH]c12` (stereo not drawn) [Example 45, 2-Amino-6-chloro-N-(1-(4-chloro-7-ethoxy-1H-indazol-6-yl)ethyl)imidazo[1,2-b]pyridazine-3-carboxamide], the figures for the negative-log IC50 (pIC50) in test [1], in test [2] (setting [4]) and in test [3] were more than 7.00, more than 6.30 and more than 7.00, respectively.

Regarding `CCOc1c(C(C)NC(=O)c2c(N)nc3ccc(-c4cncc(CO)c4)nn23)cc(Cl)c2cn[nH]c12` (stereo not drawn) [Example 48, 2-Amino-N-(1-(4-chloro-7-ethoxy-1H-indazol-6-yl)ethyl)-6-(5-(hydroxymethyl)pyridin-3-yl)imidazo[1,2-b]pyridazine-3-carboxamide], the pIC50 in test [1] was more than 7.00; in test [2] (setting [4]), more than 6.30; in test [3], more than 7.00.

For the molecule `CCOc1c(C(C)NC(=O)c2c(N)nc3ccc(-c4cncc(CO)c4)nn23)cc(Cl)c2c(Cl)n[nH]c12` (stereo not drawn) [Example 49, 2-Amino-N-(1-(3,4-dichloro-7-ethoxy-1H-indazol-6-yl)ethyl)-6-(5-(hydroxymethyl)pyridin-3-yl)imidazo[1,2-b]pyridazine-3-carboxamide], the pIC50 in test [1] was more than 7.00; in test [2] (setting [4]), more than 6.30; in test [3], more than 7.00.

As for `CCOc1c(C(C)NC(=O)c2c(N)nn3ccc(-c4cccnc4)nc23)cc(Cl)c2cn[nH]c12` (stereo not drawn) [Example 50, 2-Amino-N-[1-(4-chloro-7-ethoxy-1H-indazol-6-yl)ethyl]-5-pyridin-3-ylpyrazolo[1,5-a]pyrimidine-3-carboxamide bis(trifluoroacetate)], the values for the pIC50 in test [1], in test [2] (setting [4]) and in test [3] were more than 7.00, more than 6.30 and more than 7.00, respectively.

Regarding `CCOc1c(C(C)NC(=O)c2c(N)nn3cccnc23)cc(Cl)c2c(Br)n[nH]c12` (stereo not drawn) [Example 52, 2-Amino-N-(1-(3-bromo-4-chloro-7-ethoxy-1H-indazol-6-yl)ethyl)pyrazolo[1,5-a]pyrimidine-3-carboxamide trifluoroacetate], the pIC50 in test [1] is more than 6.30; in test [2] (setting [4]), more than 6.30; in test [3], more than 7.00.
